{
  "source": "patent US20240246920A1",
  "about": "“TRIAZOLE DERIVATIVES WITH ANTIFUNGAL ACTIVITY” (King's College London, priority 2020, published 2024)",
  "key": {"C. albicans NCPF3281": {"test_system": "C. albicans NCPF3281", "experiment": "Candida panel MIC, serial dilution in 96-well plates", "type": "cell-based, Candida albicans", "procedure,_shortened": "(§1)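 Broth microdilution in RPMI 1640/MOPS/2% glucose, pH 7.0, compound serially diluted from 128 to 0.25 μg/mL. Inoculum 0.5-5×10^5/mL from overnight 37 °C cultures; plates incubated 24 h at 37 °C. Growth read at OD530; MIC is lowest concentration giving ≥50% inhibition versus drug-free growth control.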"}, "C. glabrata NCPF8018": {"test_system": "C. glabrata NCPF8018", "experiment": "Candida panel MIC, serial dilution in 96-well plates", "type": "cell-based, Candida glabrata", "settings": "Nakaseomyces glabratus", "procedure,_shortened": "(§2)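 MIC taken as lowest concentration inhibiting growth ≥50% relative to drug-free control, from OD530 after 24 hours at 37° C. Fungi at 0.5-5×10^5/mL were exposed to serially diluted compound in RPMI 1640/MOPS/2% glucose medium adjusted to pH 7.0.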"}, "C. parapsilosis NCPF3209": {"test_system": "C. parapsilosis NCPF3209", "experiment": "microbe, parasite or virus in culture", "type": "cell-based, Candida parapsilosis", "settings": "Lodderomyces parapsilosis", "procedure,_shortened": "as §2"}, "C. auris TDG1912": {"test_system": "C. auris TDG1912", "experiment": "Candida panel MIC, serial dilution in 96-well plates", "type": "cell-based", "settings": "Candidozyma auris, TDG1912; Table 4; 24 hours, ≥50% inhibition; read-out: MIC C. auris TDG1912", "procedure,_shortened": "as §1"}, "C. tropicalis NCPF8760": {"test_system": "C. tropicalis NCPF8760", "experiment": "Candida panel MIC, serial dilution in 96-well plates", "type": "cell-based", "procedure,_shortened": "as §1"}, "Candida auris TDG1102": {"test_system": "Candida auris TDG1102", "experiment": "Candida panel MIC, serial dilution in 96-well plates", "type": "cell-based", "settings": "Candidozyma auris, TDG1102; Table 4, extended panel; 24 hours, ≥50% inhibition; read-out: MIC Candida auris TDG1102", "procedure,_shortened": "as §1"}, "Candida auris TDG2512": {"test_system": "Candida auris TDG2512", "experiment": "Candida panel MIC, serial dilution in 96-well plates", "type": "cell-based", "settings": "Candidozyma auris, TDG2512; Table 4, extended panel; 24 hours, ≥50% inhibition; read-out: MIC Candida auris TDG2512", "procedure,_shortened": "as §1"}, "C. auris 8971": {"test_system": "C. auris 8971", "experiment": "Candida panel MIC, serial dilution in 96-well plates", "type": "cell-based, Candida auris", "procedure,_shortened": "(§3)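 MIC is the lowest concentration inhibiting growth by ≥50% relative to the drug-free control, read at OD530 nm after 24 hours at 37° C. Fungi were seeded at 0.5-5×10^5/mL in MOPS-buffered RPMI 1640 with 2% glucose, pH 7.0; compounds came from DMSO solutions diluted in media.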"}, "C. auris 8977": {"test_system": "C. auris 8977", "experiment": "Candida panel MIC, serial dilution in 96-well plates", "type": "cell-based, Candida auris", "procedure,_shortened": "as §3"}, "C. auris 8984": {"test_system": "C. auris 8984", "experiment": "Candida panel MIC, serial dilution in 96-well plates", "type": "cell-based, Candida auris", "procedure,_shortened": "as §3"}, "[1]": {"test_system": "Aspergillus carbonarius ATCC 8740", "experiment": "Aspergillus panel MIC", "type": "cell-based", "settings": "Table 8", "protocol": "(§4) Starter cultures of fungal strains to be tested were grown in 3 mL of RPMI 2% glucose media incubated at 37° C. with shaking at 200 rpm overnight. The culture media used was 900 mL H2O; 10.4 g RPMI 1640 (with L-glutamine and a pH indicator but without bicarbonate); 34.5 g MOPS and 18 g glucose. The pH of the media was adjusted to 7.0 with 1 M sodium hydroxide.\n(§5) Solutions of the compound to be tested were prepared by dissolving the compound in DMSO and subsequently into media to the desired concentrations. 200 μL of compound solution was then added to the wells of the 96-well plate using a serial dilution method row-by row of the plate to give a compound concentration gradient across the plate of from 128 μg/mL to 0.25 μg/mL. The last two rows of each plate were control rows containing the culture media alone and the media plus fungi.\n(§6) The fungi starter cultures were diluted 1:10 in water in cuvettes. This was then further diluted to an optical density (OD600) of 0.01 in media. 100 μL of the fungi was added to each well giving a starting concentration of fungus of 0.5-5×10^5/mL. One species of fungus was used on each plate. The plates were then held at 37° C. for 24 hours.\n(§7) A plate reader was used to measure growth in each well at OD530 nm and the MIC was determined for each test compound. The MIC is defined as the lowest concentration giving rise to inhibition of ≥50% of that of the drug-free control well containing the fungus and media.\n(§8) The compound of Example 2 (which corresponds to compound number 2) was tested against a panel of Aspergillus strains using a method analogous to that described above for the Candida Panel."}, "[2]": {"test_system": "Aspergillus fulavus ATCC 204304", "experiment": "Aspergillus panel MIC", "type": "cell-based", "settings": "Table 8", "protocol": "as §4, §5, §6, §7, §8"}, "[3]": {"test_system": "Aspergillus fumigatus ATCC 1028", "experiment": "Aspergillus panel MIC", "type": "cell-based", "settings": "Table 8", "protocol": "as §4, §5, §6, §7, §8"}, "[4]": {"test_system": "Aspergillus fumigatus ATCC 10894", "experiment": "Aspergillus panel MIC", "type": "cell-based", "settings": "Table 8", "protocol": "as §4, §5, §6, §7, §8"}, "[5]": {"test_system": "Aspergillus fumigatus ATCC 13073", "experiment": "Aspergillus panel MIC", "type": "cell-based", "settings": "Table 8", "protocol": "as §4, §5, §6, §7, §8"}, "[6]": {"test_system": "Aspergillus fumigatus ATCC 16424", "experiment": "Aspergillus panel MIC", "type": "cell-based", "settings": "Table 8", "protocol": "as §4, §5, §6, §7, §8"}, "[7]": {"test_system": "Aspergillus fumigatus ATCC 204305", "experiment": "Aspergillus panel MIC", "type": "cell-based", "settings": "Table 8", "protocol": "as §4, §5, §6, §7, §8"}, "C. auris strain TDG1912": {"test_system": "C. auris strain TDG1912", "experiment": "Galleria mellonella infection model, larval survival", "type": "in vivo", "settings": "G. mellonella infected with C. auris TDG1912; survival over 120 hours", "protocol": "The effects of test compounds in-vivo was assessed using a Galleria mellonella infection model.\nG. mellonella were injected in a proleg with 10 μL of C. auris strain TDG1912 (OD4) at a concentration of 1×10^6 cfu/10 μL using a Hamilton syringe and left for 30 minutes to recover from injection and to allow infection to begin. The G. mellonella were then injected with 10 μL of the compound of the invention at either 50 mg/kg (10% DMSO) or 20 mg/kg (4% DMSO) or PBS containing 10% DMSO as an infection-only control. 10 larvae were selected for each treatment, and the experiment was repeated 3 times for the test compound and fluconazole. Survival of larvae was monitored for a 5 day period and results are presented as % survival over 120 hours (see FIG. 1)."}},
  "note": "Where two headings read alike, the source gives them in different places.",
  "data": [
    {"smiles": "OC(Cn1cncn1)(Cn1cncn1)c1ccc(F)cc1F", "note": "[Fluconazole, fluconazole, reference compound]", "values": [
      {"measurement": "MIC", "setting": "C. albicans NCPF3281; Candida albicans, NCPF3281, read-out: MIC Fluconazole, C. albicans 3281", "result": "> 128", "unit": "µg/mL"},
      {"measurement": "MIC", "setting": "C. albicans NCPF3281; Candida albicans, NCPF3281, Table 4, common panel, 24 hours, ≥50% inhibition, read-out: MIC C. albicans NCPF3281", "result": "≤ 0.125", "unit": "µg/mL"},
      {"measurement": "MIC", "setting": "C. albicans NCPF3281; NCPF3281, Table 6, Candida albicans panel, read-out: MIC C. albicans NCPF3281", "result": "≤ 0.125", "unit": "µg/mL"},
      {"measurement": "MIC", "setting": "C. glabrata NCPF8018; NCPF8018, read-out: MIC C. Glabrata NCPF8018", "result": "0.5 to 4", "unit": "µg/mL"},
      {"measurement": "MIC", "setting": "C. glabrata NCPF8018; NCPF8018, read-out: MIC Fluconazole, C. glabrata 8018", "result": "> 128", "unit": "µg/mL"},
      {"measurement": "MIC", "setting": "C. glabrata NCPF8018; NCPF8018, Table 4, common panel, 24 hours, ≥50% inhibition, read-out: MIC C. glabrata NCPF8018", "result": "0.5 to 4", "unit": "µg/mL"},
      {"measurement": "MIC", "setting": "C. parapsilosis NCPF3209; NCPF3209, read-out: MIC C. Parapsilosis NCPF3209", "result": "≤ 0.25", "unit": "µg/mL"},
      {"measurement": "MIC", "setting": "C. parapsilosis NCPF3209; NCPF3209, read-out: MIC Fluconazole, C. parapsilosis 3209", "result": 0.5, "unit": "µg/mL"},
      {"measurement": "MIC", "setting": "C. parapsilosis NCPF3209; NCPF3209, Table 4, common panel, 24 hours, ≥50% inhibition, read-out: MIC C. parapsilosis NCPF3209", "result": "≤ 0.25", "unit": "µg/mL"},
      {"measurement": "MIC", "setting": "C. auris TDG1912", "result": "> 128", "unit": "µg/mL"},
      {"measurement": "MIC", "setting": "C. tropicalis NCPF8760; NCPF8760, Table 4, common panel, 24 hours, ≥50% inhibition, read-out: MIC C. tropicalis NCPF8760", "result": "4 to 8", "unit": "µg/mL"},
      {"measurement": "MIC", "setting": "C. tropicalis NCPF8760; NCPF8760, read-out: MIC C. Tropicalis NCPF8760", "result": "4 to 8", "unit": "µg/mL"},
      {"measurement": "MIC", "setting": "Candida auris TDG1102", "result": 64, "unit": "µg/mL"},
      {"measurement": "MIC", "setting": "Candida auris TDG2512", "result": 16, "unit": "µg/mL"},
      {"measurement": "MIC", "setting": "C. auris 8971; Candidozyma auris, 8971, 24 h, read-out: MIC C. auris 8971", "result": 16, "unit": "µg/mL"},
      {"measurement": "MIC", "setting": "C. auris 8971; Candidozyma auris, 8971, read-out: MIC C. auris 8971", "result": 32, "unit": "µg/mL"},
      {"measurement": "MIC", "setting": "C. auris 8977; Candidozyma auris, 8977, 24 h, read-out: MIC C. auris 8977", "result": 32, "unit": "µg/mL"},
      {"measurement": "MIC", "setting": "C. auris 8977; Candidozyma auris, 8977, read-out: MIC C. auris 8977", "result": 16, "unit": "µg/mL"},
      {"measurement": "MIC", "setting": "C. auris 8984; Candidozyma auris, 8984, 24 h, read-out: MIC C. auris 8984", "result": "> 128", "unit": "µg/mL"},
      {"measurement": "MIC", "setting": "C. auris 8984; Candidozyma auris, 8984, read-out: MIC C. auris 8984", "result": "> 128", "unit": "µg/mL"},
      {"measurement": "Minimum inhibitory concentration Aspergillus carbonarius ATCC 8740", "setting": "[1]", "result": ">64"},
      {"measurement": "Minimum inhibitory concentration Aspergillus fulavus ATCC 204304", "setting": "[2]", "result": ">64"},
      {"measurement": "Minimum inhibitory concentration Aspergillus fumigatus ATCC 1028", "setting": "[3]", "result": ">64"},
      {"measurement": "Minimum inhibitory concentration Aspergillus fumigatus ATCC 10894", "setting": "[4]", "result": ">64"},
      {"measurement": "Minimum inhibitory concentration Aspergillus fumigatus ATCC 13073", "setting": "[5]", "result": ">64"},
      {"measurement": "Minimum inhibitory concentration Aspergillus fumigatus ATCC 16424", "setting": "[6]", "result": ">64"},
      {"measurement": "Minimum inhibitory concentration Aspergillus fumigatus ATCC 204305", "setting": "[7]", "result": ">64"},
      {"measurement": "Protection against multi-drug resistant C. auris (larval survival)", "setting": "C. auris strain TDG1912", "result": "no significant effect"}
    ]}
  ]
}
